In PMC10943827, “Engineering Saccharomyces cerevisiae for targeted hydrolysis and fermentation of glucuronoxylan through CRISPR/Cas9 genome editing” (Microbial Cell Factories, 2024):

Molecular target: T1, XylA (Aspergillus oryzae, UniProt Q2UR38)
T1 construct: gene xlnD; codon-optimized gene, N-terminal S. cerevisiae SED1 secretory signal peptide, expressed from X2 locus of S. cerevisiae CEN.PK XXX; secretome, intact cells and lysate assayed
T1 sequence (Q2UR38 21-798): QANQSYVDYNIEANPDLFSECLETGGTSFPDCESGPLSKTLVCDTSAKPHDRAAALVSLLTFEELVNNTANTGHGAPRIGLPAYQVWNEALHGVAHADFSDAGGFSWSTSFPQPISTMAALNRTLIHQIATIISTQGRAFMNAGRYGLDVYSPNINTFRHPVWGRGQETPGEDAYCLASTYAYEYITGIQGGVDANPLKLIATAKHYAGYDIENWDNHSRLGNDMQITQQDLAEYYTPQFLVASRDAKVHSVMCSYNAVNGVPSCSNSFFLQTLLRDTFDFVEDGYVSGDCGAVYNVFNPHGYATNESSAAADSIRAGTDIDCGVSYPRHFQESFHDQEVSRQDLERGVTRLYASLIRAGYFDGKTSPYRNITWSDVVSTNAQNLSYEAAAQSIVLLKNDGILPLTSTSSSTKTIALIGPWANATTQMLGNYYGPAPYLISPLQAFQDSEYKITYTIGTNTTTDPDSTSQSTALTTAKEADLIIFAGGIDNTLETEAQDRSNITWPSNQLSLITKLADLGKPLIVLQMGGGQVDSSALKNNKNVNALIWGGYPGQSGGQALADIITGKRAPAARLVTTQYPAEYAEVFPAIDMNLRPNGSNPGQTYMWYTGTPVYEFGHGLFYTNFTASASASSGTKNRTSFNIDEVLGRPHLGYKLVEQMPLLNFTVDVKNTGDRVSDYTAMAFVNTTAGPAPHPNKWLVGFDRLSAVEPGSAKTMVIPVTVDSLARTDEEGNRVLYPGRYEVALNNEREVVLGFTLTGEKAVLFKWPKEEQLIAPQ
Experiment: p-nitrophenol release at […] nm, secretome / cell / intracellular fractions of XylA strain versus parent XXX strain
Assay type: cell-based
Conditions: 5 mM substrate, 20 mM sodium phosphate pH 7, 30 °C, 30 min

## O=[N+]([O-])c1ccc(O[C@@H]2OC[C@@H](O)[C@H](O)[C@H]2O)cc1 [p-nitrophenyl-β-D-xylopyranoside]
  p-nitrophenol release at 405 nm, secretome / cell / intracellular fractions of X: subcellular β-xylosidase activity quantified using p-nitrophenyl-β-D-xylopyranoside
